One assay deals with MCF-7 ER^D538G. Kind of assay: CellTiter-Glo cell proliferation inhibition, MCF-7 ER^D538G. The format is cell-based. Conditions: Homo sapiens, MCF7, 144 h, MCF-7 ER^D538G (CTG), 6 days, starting concentration 10 μM; for inhibition at up to 10 µM: read-out: IH % max (maximum inhibition percentage). Put shortly:
(§1)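 MCF-7, TamR-MCF-7, and CRISPR-edited MCF-7 ER D538G or Y537S cells were seeded at 1,000 or 2,000 cells/well in EMEM and cultured 24 h. They were then exposed to a 4-fold, 10-point series (top 10 µM before addition to wells) for 6 days or 72 h at 37 °C. CellTiter-Glo luminescence gave IC50 and maximum % inhibition.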

A further assay concerns MCF-7. Kind of assay: CellTiter-Glo cell proliferation inhibition, MCF-7 (Effect Example 2). The format is cell-based. Conditions: Homo sapiens, MCF7, 144 h, MCF-7 (CTG), 6 days, starting concentration 10 μM; for inhibition at up to 10 µM: read-out: IH % max (maximum inhibition percentage). In short, it runs like this: as §1

SMILES strings stand for the structures. pIC50: −log10 of the molar value.

Regarding `C[C@@H]1CN(CCOc2ccc(Oc3c(-c4ccc(S(C)(=O)=O)cc4)ccc4cc(O)ccc34)cc2)[C@@H](C)CN1CCOCC(=O)N1CCN(c2ccc3c(c2)CN(C2CCC(=O)NC2=O)C3=O)CC1` (stereo partly drawn) [Compound D9, 3-(5-(4-(2-(2-((2R,5S)-4-(2-(4-((6-hydroxy-2-(4-(methylsulfonyl)phenyl)naphthalen-1-yl)oxy)phenoxy)ethyl)-2,5-dimethylpiperazin-1-yl)ethoxy)acetyl)piperazin-1-yl)-1-oxoisoindolin-2-yl)piperidine-2,6-dione], in the assay with MCF-7 ER^D538G, the pIC50 was 6.02 and the inhibition at up to 10 µM came out at 65%. Further, in the assay on MCF-7, the pIC50 is 6.62 and the inhibition at up to 10 µM is 60%.

On to `CS(=O)(=O)c1ccc(-c2ccc3cc(O)ccc3c2Oc2ccc(OCCOCCOCCOCCOc3ccc4c(c3)C(=O)N(C3CCC(=O)NC3=O)C4)cc2)cc1` (stereo not shown) [Compound D35, 3-(6-(2-(2-(2-(2-(4-((6-hydroxy-2-(4-(methylsulfonyl)phenyl)naphthalen-1-yl)oxy)phenoxy)ethoxy)ethoxy)ethoxy)ethoxy)-1-oxoisoindolin-2-yl)piperidine-2,6-dione], for which the inhibition at up to 10 µM in the assay with MCF-7 ER^D538G came to 39%; in the assay with MCF-7, 45%.

`CS(=O)(=O)c1ccc(-c2ccc3cc(O)ccc3c2Oc2ccc(OCCCCN3CCN(c4ccc5c(c4)CN(C4CCC(=O)NC4=O)C5=O)CC3)cc2)cc1` (stereo not shown) [Compound D59, 3-(5-(4-(4-(4-((6-hydroxy-2-(4-(methylsulfonyl)phenyl)naphthalen-1-yl)oxy)phenoxy)butyl)piperazin-1-yl)-1-oxoisoindolin-2-yl)piperidine-2,6-dione]: the inhibition at up to 10 µM in the assay on MCF-7 was 37%.

Turning to `CCN(CCOCCOCCN1CCN(c2ccc3c(c2)C(=O)N(C2CCC(=O)NC2=O)C3=O)CC1)CCOc1ccc(Oc2c(-c3ccc(S(C)(=O)=O)cc3)ccc3cc(O)ccc23)cc1` (stereo not shown) [Compound D28, 2-(2,6-dioxopiperidin-3-yl)-5-(4-(2-(2-(2-(ethyl(2-(4-((6-hydroxy-2-(4-(methylsulfonyl)phenyl)naphthalen-1-yl)oxy)phenoxy)ethyl)amino)ethoxy)ethoxy)ethyl)piperazin-1-yl)isoindoline-1,3-dione], in the assay with MCF-7 ER^D538G, the negative logarithm of the IC50 (pIC50) is 6.25 and the inhibition at up to 10 µM came to 81%. Also, in the assay on MCF-7, the pIC50 was 6.67 and the inhibition at up to 10 µM amounted to 53%.

As to `CCN(CCOc1ccc(Oc2c(-c3ccc(S(C)(=O)=O)cc3)ccc3cc(O)ccc23)cc1)CC(=O)N1CCN(c2ccc3c(c2)C(=O)N(C2CCC(=O)NC2=O)C3=O)CC1` (stereo not shown) [Compound D8, 2-(2,6-dioxopiperidin-3-yl)-5-(4-(N-ethyl-N-(2-(4-((6-hydroxy-2-(4-(methylsulfonyl)phenyl)naphthalen-1-yl)oxy)phenoxy)ethyl)glycyl)piperazin-1-yl)isoindoline-1,3-dione], the values for the inhibition at up to 10 µM in the assay with MCF-7 ER^D538G and with MCF-7 were 44% and 56%, respectively.

Take `CCN(CCCCCN(C)CC(=O)N1CCN(c2ccc3c(c2)C(=O)N(C2CCC(=O)NC2=O)C3=O)CC1)CCOc1ccc(Oc2c(-c3ccc(S(C)(=O)=O)cc3)ccc3cc(O)ccc23)cc1` (stereo not shown) [Compound D31, 2-(2,6-dioxopiperidin-3-yl)-5-(4-(N-(5-(ethyl(2-(4-((6-hydroxy-2-(4-(methylsulfonyl))phenyl)naphthalen-1-yl)oxy)phenoxy)ethyl)aminopentyl)-N-methylglycyl)piperazin-1-yl)isoindoline-1,3-dione]: the inhibition at up to 10 µM was 90% in the assay on MCF-7 ER^D538G and 32% with MCF-7.

Turning to `CS(=O)(=O)c1ccc(-c2ccc3cc(O)ccc3c2Oc2ccc(OCCOCCOCCN3CCN(c4ccc5c(c4)CN(C4CCC(=O)NC4=O)C5=O)CC3)cc2)cc1` (stereo not shown) [Compound D30], the inhibition at up to 10 µM in the assay on MCF-7 ER^D538G turned out to be 65%. Moreover, in the assay on MCF-7, the pIC50 is 6.27 and the inhibition at up to 10 µM is 55%.

For `CS(=O)(=O)c1ccc(-c2ccc3cc(O)ccc3c2Oc2ccc(OCCOCCOCCN3CCN(c4ccc5c(c4)C(=O)N(C4CCC(=O)NC4=O)C5)CC3)cc2)cc1` (stereo not shown) [Compound D22, 3-(6-(4-(2-(2-(2-(4-((6-hydroxy-2-(4-(methylsulfonyl)phenyl)naphthalen-1-yl)oxy)phenoxy)ethoxy)ethoxy)ethyl)piperazin-1-yl)-1-oxoisoindolin-2-yl)piperidine-2,6-dione], the inhibition at up to 10 µM in the assay with MCF-7 ER^D538G came out at 61%; in the assay with MCF-7 it was 38%.

The compound `CS(=O)(=O)c1ccc(-c2ccc3cc(O)ccc3c2Oc2ccc(N3CCN(CCCCCOCC(=O)N4CCN(c5ccc6c(c5)CN(C5CCC(=O)NC5=O)C6=O)CC4)CC3)cc2)cc1` (stereo not shown) [Compound D11, 3-(5-(4-(2-((5-(4-(4-((6-hydroxy-2-(4-(methylsulfonyl)phenyl)naphthalen-1-yl)oxy)phenyl)piperazin-1-yl)pentyl)oxy)acetyl)piperazin-1-yl)-1-oxoisoindolin-2-yl)piperidine-2,6-dione] showed a pIC50 with MCF-7 ER^D538G of 6.10. Besides, the inhibition at up to 10 µM in the assay with MCF-7 ER^D538G is 54%; with MCF-7 it was 45%.

In the case of `C[C@@H]1CN(CCOCC(=O)N2CCN(c3ccc4c(c3)C(=O)N(C3CCC(=O)NC3=O)C4=O)CC2)[C@@H](C)CN1CCOc1ccc(Oc2c(-c3ccc(S(C)(=O)=O)cc3)ccc3cc(O)ccc23)cc1` (stereo partly drawn) [Compound D15, 2-(2,6-dioxopiperidin-3-yl)-5-(4-(2-(2-((2S,5R)-4-(2-(4-((6-hydroxy-2-(4-(methylsulfonyl)phenyl)naphthalen-1-yl)oxy)phenoxy)ethyl)-2,5-dimethylpiperazin-1-yl)ethoxy)acetyl)piperazin-1-yl)isoindoline-1,3-dione], the inhibition at up to 10 µM in the assay on MCF-7 ER^D538G was 48%. Moreover, in the assay on MCF-7, the pIC50 was 6.31 and the inhibition at up to 10 µM turned out to be 51%.

On to `CCN(CCOc1ccc(Oc2c(-c3ccc(S(C)(=O)=O)cc3)ccc3cc(O)ccc23)cc1)C(=O)c1ccc(CCC2CCN(C3CCN(c4ccc5c(c4)C(=O)N(C4CCC(=O)NC4=O)C5=O)CC3)CC2)cc1` (stereo not shown) [Compound D34, 4-(2-(1′-(2-(2,6-dioxopiperidin-3-yl)-1,3-dioxoisoindolin-5-yl)-[1,4′-bipiperidin]-4-yl)ethyl)-N-ethyl-N-(2-(4-((6-hydroxy-2-(4-(methylsulfonyl)phenyl)naphthalen-1-yl)oxy)phenoxy)ethyl)benzamide], for which the pIC50 in the assay on MCF-7 ER^D538G is 6.74; in the assay on MCF-7, 7.16. Further, the inhibition at up to 10 µM in the assay on MCF-7 ER^D538G came to 82%; in the assay on MCF-7 it was 52%.

Regarding `CS(=O)(=O)c1ccc(-c2ccc3cc(O)ccc3c2Oc2ccc(OCCOCCOCCOCCN3CCN(c4ccc5c(c4)C(=O)N(C4CCC(=O)NC4=O)C5=O)CC3)cc2)cc1` (stereo not shown) [Compound D19], the figures for the inhibition at up to 10 µM in the assay on MCF-7 ER^D538G and with MCF-7 were 73% and 44%, respectively.

With `CS(=O)(=O)c1ccc(-c2ccc3cc(O)ccc3c2Oc2ccc(OCCOCCOCCOCCN3CCN(c4ccc5c(c4)C(=O)N(C4CCC(=O)NC4=O)C5)CC3)cc2)cc1` (stereo not shown) [Compound D21], the inhibition at up to 10 µM in the assay on MCF-7 ER^D538G worked out at 55%; in the assay on MCF-7, 44%.

(Values after patent publication US20240131168A1, “NAPHTHALENE RING-CONTAINING COMPOUND, PHARMACEUTICAL COMPOSITION CONTAINING SAME, AND USE THEREOF” (JIANGSU YAHONG MEDITECH CO., LTD., priority 2021, published 2024).)
